Laboratory results from patent publication US11154569B2, “Ruthenium μ-nitrido complexes and their use as calcium uptake inhibitors” (CORNELL UNIVERSITY, priority 2018, dated 2021).
Numbering of substitutions follows the chain as printed.

Assays:
[1] = molecular target: T1, human MCU S259A mutant (Homo sapiens, UniProt Q8NE86, S259A); test: mCa2+ uptake in permeabilized HEK293T cells expressing MCU S259A mutant; assay type: cell-based; details: C-2 10 nM, Ru360 500 nM
T1 construct: stably expressing flag-tagged full-length human wild type MCU (MCU^WT) or the mutant S259A (MCU^S259A); Flag; expressed in transfected cells
T1 sequence (Q8NE86 51-351 S259A): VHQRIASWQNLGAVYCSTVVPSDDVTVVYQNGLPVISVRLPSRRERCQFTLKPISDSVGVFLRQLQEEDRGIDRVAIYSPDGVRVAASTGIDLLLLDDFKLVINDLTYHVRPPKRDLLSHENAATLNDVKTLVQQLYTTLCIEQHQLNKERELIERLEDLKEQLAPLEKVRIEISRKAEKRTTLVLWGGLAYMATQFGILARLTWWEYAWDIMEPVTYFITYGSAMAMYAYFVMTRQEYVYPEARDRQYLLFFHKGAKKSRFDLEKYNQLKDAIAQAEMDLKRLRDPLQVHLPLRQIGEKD
T1 sequence (Q9H4I9 48-107 partner limits assumed): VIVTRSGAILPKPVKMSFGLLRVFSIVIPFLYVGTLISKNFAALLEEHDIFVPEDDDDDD
Description: An equal number of IHEK293T (6×10^6 cells) were washed in Ca^2+ free PBS, pH 7.4, resuspended and permeabilized with 40 μg/ml digitonin in 1.5 ml of intracellular medium (ICM) composed of 120 mM KCl, 10 mM NaCl, 1 mM K—H2PO4, 20 mM HE PES-Tris, pH 7.2 and 2 μM thapsigargin to block the SERCA pump. All measurements were performed in the presence of 2 mM succinate. The permeabilized cells were loaded with JC-1 (800 nM) and Fura2-FF (0.5 μM), respectively. Fluorescence was monitored in a multi-wavelength excitation dual-wavelength emission fluorimeter. [Ca^2+]out is represented as the excitation ratio (340 nm/380 nm) of Fura2-FF/FA fluorescence and ΔΨm as the ratio of the fluorescence of J-aggregate (570 nm excitation/595 nm emission) and monomer (490 nm excitation/535 nm emission) forms of JC-1. A series of extra-mitochondrial Ca^2+ bolus (20 μM) was added and mitochondrial uncoupler, CCCP (2 jμM), were added at the indicated time points. All of the experiments were performed at 37° C. with constant stirring.
Having observed the high potency of C-2 compared to Ru360, the mechanism of action of C-2 was next investigated. […] HIEK293T cells stably expressing flag-tagged full-length human wild type MCU (MCU^WT) or the mutant S259A (MCU^S259A) were permeabilized and mCa^2+ uptake was measured as above.

[2] = molecular target: T2, mitochondrial calcium uniporter (MCU) (Homo sapiens, UniProt Q8NE86); test: Cytoplasmic and mitochondrial Ca2+ dynamics in intact HeLa cells after histamine; assay type: cell-based; design: 30 min) and Rhod-2 AM; endogenous in cells; host or cells: HeLa (intact; some experiments with transfected Ca2+ sensors R-GECO1 and GCamP6-mt, MCU itself not transfected); details: for inhibition of MCU-mediated mCa2+ uptake in intact cells: intact HeLa cells, 50 μM for 30 minutes, histamine 100 μM, Rhod-2 AM and GCamP6-mt; for cytosolic calcium dynamics in intact cells: intact cells stimulated with histamine
T2 sequence (Q8NE86 51-351): T1 sequence (Q8NE86 51-351 S259A) with A209S
T2 sequence (Q9H4I9 48-107 partner limits assumed): T1 sequence (Q9H4I9 48-107 partner limits assumed)
Description: HeLa cells were loaded with Fluo-4-AM (5 μM; 30 min) and Rhod-2 AM (2 μM; 50 min) in extracellular medium as previously described (F. Perocchi et al, Nature 2010, 467, 291-296). Coverslips were mounted in an open perfusion microincubator at 37° C. and imaged. After 1 minute of baseline recording, histamine (100 μM) was added, and confocal images were recorded every 3 seconds at 488 and 561 nm excitation using a 40× oil objective. Images were analyzed and quantified by using ImageJ (NIH).
HeLa cells were transiently transfected with genetically encoded cytosolic and mitochondrial targeted Ca^2+ sensors R-GECO1 and GCamP6-mt plasmids. After 48 hours, the transfected cells were treated with MCU inhibitors (C1, C-2, and C-3; 50 μM). After 1 minute of baseline recording, histamine (100 μM) was added, and the change of R-GECO1 and GCamP6-mt fluorescence was measured with 488-nm and 561-nm excitation on a confocal microscope equipped with a 40× oil objective. Images were analyzed and quantified by using ImageJ (NIH).
Encouraged by the high cell permeability and mitochondrial selectivity of C-2, the capability of this complex to inhibit MCU-mediated mCa^2+ uptake in intact, non-permeabilized cells was investigated Briefly, HeLa cells were loaded with the cytosolic calcium concentration ([Ca^2+]) indicator Fluo-4 AM and the mitochondrial calcium concentration ([…]) indicator Rhod-2 AM in the presence or absence of C-1, C-2, and C-3 (50 μM). Cells were stimulated with the GPCR agonist histamine (100 μM) to rapidly elevate cCa^2+ levels to induce mCa^2+ uptake (Z. Dong et al., Mol. Cell 2017, 65, 1014-1028).
FIGS. 3A and 3B are graphs showing results of cytosolic ([Ca^2+]e, Fluo-4 AM) and mitochondrial ([Ca^2+]m, Rhod-2 AM) calcium transients in HeLa cells after treatment with histamine (100 μM) that were pretreated with or without C-1, C-2, or C-3 (50 μM) for 30 minutes. FIGS. 3C and 3D are graphs showing results of cytosolic ([Ca^2+]e, R-GECO) and mitochondrial ([Ca^2+]m, GCamP6-mt)) calcium transients in HeLa cells after treatment with histamine (100 μM) that were pretreated with or without C-1, C-2, or C-3 (50 μM) for 30 minutes. HeLa cells were co-transfected with R-GECO1 and GCamP6-mt. 48 hours post-transfection. Data are represented as mean±SEM. *p<0.05. n=3-6.

N.N.N.N.N.N.N.N.O=C[O-].O=C[O-].[O-2].[Ru+3].[Ru+4] [Ru360, reference compound]
effect of MCU S259A mutation on MCU inhibition compared to MCU WT cells [1]: partial resistance to Ru360 inhibition

[Ru2(μ-N)(en)4Cl2]Cl3 [C-3]
inhibition of MCU-mediated mCa2+ uptake in intact cells [2]: did not show appreciable inhibition of mCa^2+ uptake

N.N.N.N.N.N.N.N.[Cl-].[Cl-].[N-3].[Ru+4].[Ru+4] [C-2, [Ru2(μ-N)(NH3)8Cl2]Cl3]
effect of MCU S259A mutation on MCU inhibition compared to MCU WT cells [1]: almost no change in the inhibitory activity
inhibition of MCU-mediated mCa2+ uptake in intact cells [2]: significant inhibition of MCU-mediated mCa^2+ uptake
inhibition of MCU-mediated mCa2+ uptake in intact cells ([2]; listed as Ru265): most effective MCU-inhibition in non-permeabilized cells
cytosolic calcium dynamics in intact cells [2]: normal cytosolic calcium dynamics
cytosolic calcium dynamics in intact cells ([2]; listed as Ru265): without any effect on intracellular Ca^2+ dynamics
